Data taken from ChEMBL document CHEMBL1201862, “PubChem BioAssay data set” (2004).
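Protocol summary: plate cells (96-well), add compound at 5 concentrations, incubate 48 h, interpolate endpoints linearly. The concentration for 50% growth inhibition is given as GI50.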 Active and inactive are the calls of the source. No stated cut-off is given here; in the data, active = GI50 up to about 1.1 µM and inactive = higher.

Key:
Assay in all cases: inhibition of tumour cell growth, NCI panel, 48 h
MOLT-4 = test system: MOLT-4
M14 = test system: M14
UO-31 = test system: UO-31
TK-10 = test system: TK-10
NCI-H23 = test system: NCI-H23
NCI-H522 = test system: NCI-H522
OVCAR-4 = test system: OVCAR-4
CCRF-CEM = test system: CCRF-CEM
SR = test system: SR
OVCAR-5 = test system: OVCAR-5
IGROV-1 = test system: IGROV-1
COLO 205 = test system: COLO 205
HOP-92 = test system: HOP-92
HT-29 = test system: HT-29
T47D = test system: T47D
NCI/ADR-RES = test system: NCI/ADR-RES
MDA-MB-435 = test system: MDA-MB-435
MDA-MB-231 = test system: MDA-MB-231
Hs-578T = test system: Hs-578T

Measured: GI50

CCOC(=O)CCC1(C(=O)OCC)CCCC1=O (stereo not given)
inactive: MOLT-4 > 100 µM | M14 > 100 µM | UO-31 > 100 µM | TK-10 > 100 µM | NCI-H23 > 100 µM | NCI-H522 > 100 µM | OVCAR-4 > 100 µM | CCRF-CEM > 100 µM | SR 25.4 µM | OVCAR-5 > 100 µM | IGROV-1 > 100 µM | COLO 205 > 100 µM | HOP-92 > 100 µM | HT-29 > 100 µM

CNC(=O)CNC(=O)CCC(=O)OC
inactive: MOLT-4 > 100 µM | T47D > 100 µM | M14 > 100 µM | UO-31 > 100 µM | TK-10 > 100 µM | NCI-H23 > 100 µM | NCI-H522 66.2 µM | OVCAR-4 > 100 µM | OVCAR-5 > 100 µM | NCI/ADR-RES > 100 µM | COLO 205 > 100 µM | HT-29 > 100 µM | MDA-MB-435 > 100 µM | MDA-MB-231 > 100 µM

CS(=O)(=O)N(CCC#N)c1ccc(C=O)cc1
inactive: MOLT-4 92.7 µM | M14 > 100 µM | UO-31 > 100 µM | NCI-H522 > 100 µM | OVCAR-4 > 100 µM | SR > 100 µM | OVCAR-5 > 100 µM | IGROV-1 > 100 µM | HT-29 > 100 µM

O=C(O)Cc1cc(=O)oc2cc(O)c(Cl)cc12
inactive: MOLT-4 > 100 µM | M14 > 100 µM | TK-10 > 100 µM | NCI-H23 > 100 µM | NCI-H522 > 100 µM | OVCAR-4 > 100 µM | CCRF-CEM > 100 µM | OVCAR-5 > 100 µM | IGROV-1 > 100 µM | COLO 205 > 100 µM | HOP-92 > 100 µM | HT-29 > 100 µM

O=C(/C=C/c1c(O)ccc2ccccc12)c1ccc2ccccc2c1
inactive: MOLT-4 > 100 µM | UO-31 > 100 µM | TK-10 > 100 µM | NCI-H23 > 100 µM | NCI-H522 > 100 µM | OVCAR-4 > 100 µM | CCRF-CEM > 100 µM | OVCAR-5 > 100 µM | IGROV-1 > 100 µM | COLO 205 > 100 µM | HOP-92 > 100 µM | HT-29 > 100 µM

CC1(O)CCn2c(=O)c3cc4ccccc4cc3c(=O)n2C1O (stereo not given)
inactive: MOLT-4 > 100 µM | TK-10 > 100 µM | NCI-H23 > 100 µM | NCI-H522 22 µM | CCRF-CEM > 100 µM | SR > 100 µM | OVCAR-5 > 100 µM | IGROV-1 > 100 µM | COLO 205 > 100 µM | HOP-92 79.3 µM | HT-29 > 100 µM

NN=C1/C(=C\c2ccccc2)CCC/C1=C/c1ccccc1
inactive: MOLT-4 17.9 µM | M14 41.6 µM | UO-31 27.1 µM | TK-10 > 100 µM | NCI-H23 36.9 µM | NCI-H522 15.4 µM | OVCAR-4 49.4 µM | CCRF-CEM 20.1 µM | OVCAR-5 94 µM | IGROV-1 39.1 µM | COLO 205 26.9 µM | HOP-92 25.7 µM

Cc1nc(C(N)=O)c(N)n1CCN1CCN(C(=O)CCCCCCCCCCNC2NC=Nc3[nH]cnc32)CC1 (stereo not given)
inactive: MOLT-4 11.6 µM | M14 25.7 µM | UO-31 > 100 µM | TK-10 90.2 µM | NCI-H23 10.1 µM | NCI-H522 > 10 µM | CCRF-CEM 13.8 µM | SR 13.6 µM | OVCAR-5 > 100 µM | IGROV-1 52.6 µM | COLO 205 73.5 µM | HOP-92 16.3 µM | HT-29 > 100 µM

NCC#CCNCCCN1CC1
inactive: T47D > 100 µM | Hs-578T > 100 µM | M14 > 100 µM | TK-10 > 100 µM | NCI-H23 > 100 µM | NCI-H522 > 100 µM | OVCAR-4 > 100 µM | SR > 100 µM | OVCAR-5 > 100 µM | IGROV-1 > 100 µM | NCI/ADR-RES > 100 µM | COLO 205 > 100 µM | HOP-92 > 100 µM | HT-29 > 100 µM | MDA-MB-435 > 100 µM

COc1ccc(/C=C2\CCCC(C(NO)c3ccc(OC)cc3)C2=NO)cc1 (stereo not given)
inactive: MOLT-4 23.1 µM | M14 39.7 µM | UO-31 28.8 µM | TK-10 66.1 µM | NCI-H23 38.6 µM | NCI-H522 27.2 µM | OVCAR-4 29.5 µM | CCRF-CEM 33.9 µM | IGROV-1 33.9 µM | COLO 205 44.3 µM | HT-29 72.1 µM

CC1(C)OCC(C(O)C2OC(C)(C)OC2C=O)O1 (stereo not given)
inactive: MOLT-4 > 100 µM | Hs-578T > 100 µM | M14 > 100 µM | UO-31 > 100 µM | TK-10 > 100 µM | NCI-H23 > 100 µM | OVCAR-4 > 100 µM | CCRF-CEM > 100 µM | SR > 100 µM | OVCAR-5 > 100 µM | IGROV-1 > 100 µM | NCI/ADR-RES > 100 µM | COLO 205 > 100 µM | HT-29 > 100 µM | MDA-MB-435 > 100 µM | MDA-MB-231 > 100 µM

COP(=O)(OC)/C(=N\Nc1ccc([N+](=O)[O-])cc1)NCc1ccccc1
inactive: MOLT-4 25.8 µM | M14 21.4 µM | TK-10 30 µM | NCI-H23 18.9 µM | NCI-H522 13.4 µM | OVCAR-4 24.5 µM | CCRF-CEM 20.6 µM | SR 20.3 µM | OVCAR-5 40.3 µM | IGROV-1 30.8 µM | COLO 205 46.3 µM | HOP-92 18.8 µM | HT-29 43.3 µM

Cc1ccc(NC(=O)CC(=O)n2nc(-c3ccccc3)c(/N=N\c3ccccc3[N+](=O)[O-])c2-c2ccccc2)cc1
inactive: MOLT-4 > 100 µM | M14 > 100 µM | UO-31 > 100 µM | TK-10 > 100 µM | NCI-H23 > 100 µM | NCI-H522 74.8 µM | OVCAR-4 45.3 µM | CCRF-CEM > 100 µM | SR > 100 µM | OVCAR-5 > 100 µM | IGROV-1 > 100 µM | COLO 205 > 100 µM | HOP-92 28.2 µM | HT-29 > 100 µM

O=c1[nH]c(C2CCCCC2)nc2cc(Cl)ccc12
inactive: MOLT-4 > 100 µM | UO-31 58.2 µM | TK-10 > 100 µM | NCI-H23 > 100 µM | NCI-H522 > 100 µM | OVCAR-4 67.3 µM | SR > 100 µM | OVCAR-5 > 100 µM | IGROV-1 > 100 µM | COLO 205 > 100 µM | HOP-92 44 µM | HT-29 > 100 µM

O=C1NC2C(=O)N(Cc3ccccc3)C(=O)C2N1 (stereo not given)
inactive: MOLT-4 > 100 µM | M14 37.8 µM | UO-31 > 100 µM | TK-10 > 100 µM | NCI-H23 > 100 µM | NCI-H522 > 100 µM | OVCAR-4 > 100 µM | CCRF-CEM > 100 µM | SR > 100 µM | OVCAR-5 > 100 µM | IGROV-1 > 100 µM | COLO 205 > 100 µM | HOP-92 > 100 µM | HT-29 > 100 µM

O=S(=O)(NCn1ccc2ccccc21)c1ccccc1
inactive: MOLT-4 > 100 µM | M14 > 100 µM | UO-31 > 100 µM | TK-10 > 100 µM | NCI-H23 > 100 µM | NCI-H522 > 100 µM | CCRF-CEM > 88.5 µM | SR 31.6 µM | OVCAR-5 > 100 µM | IGROV-1 > 100 µM | COLO 205 > 79.8 µM | HOP-92 > 100 µM | HT-29 37 µM

CC/C(CC(=O)CCC(=O)Nc1ccc(C)c(C)c1)=N\NC(=O)C(N)=O
inactive: MOLT-4 > 100 µM | M14 > 100 µM | UO-31 > 100 µM | TK-10 > 100 µM | NCI-H23 > 100 µM | NCI-H522 > 100 µM | OVCAR-4 > 100 µM | CCRF-CEM > 100 µM | SR > 100 µM | OVCAR-5 > 100 µM | IGROV-1 > 100 µM | COLO 205 > 100 µM | HOP-92 > 100 µM | HT-29 > 100 µM

COC(=O)CCC(=O)CC1CC(=O)C2CCCN12 (stereo not given)
inactive: MOLT-4 > 100 µM | M14 > 100 µM | UO-31 > 100 µM | TK-10 > 100 µM | NCI-H23 > 100 µM | NCI-H522 > 100 µM | OVCAR-4 > 100 µM | CCRF-CEM > 100 µM | SR > 100 µM | OVCAR-5 > 100 µM | IGROV-1 > 100 µM | COLO 205 > 100 µM | HOP-92 > 100 µM | HT-29 > 100 µM

COc1c(NC(C)=O)cc(C)cc1NC(C)=O
inactive: MOLT-4 > 100 µM | M14 > 100 µM | TK-10 > 100 µM | NCI-H522 > 100 µM | OVCAR-4 > 100 µM | CCRF-CEM > 100 µM | SR > 100 µM | COLO 205 > 100 µM | HOP-92 > 100 µM

Cc1ccc2nc3cc(C)c(=O)cc-3sc2c1
inactive: MOLT-4 11.8 µM | M14 > 100 µM | UO-31 67.3 µM | TK-10 > 100 µM | NCI-H23 57.7 µM | NCI-H522 34.4 µM | OVCAR-4 37.8 µM | CCRF-CEM 8.95 µM | SR 17 µM | OVCAR-5 > 100 µM | IGROV-1 > 100 µM | COLO 205 94.8 µM | HOP-92 > 100 µM | HT-29 > 100 µM

CCC[S+]([O-])c1nc(COC(=O)NC)c(COC(=O)NC)n1C (stereo not given)
inactive: MOLT-4 > 100 µM | M14 > 100 µM | UO-31 > 100 µM | NCI-H23 > 100 µM | NCI-H522 > 100 µM | OVCAR-4 > 100 µM | CCRF-CEM > 100 µM | SR > 100 µM | OVCAR-5 > 100 µM | IGROV-1 > 100 µM | NCI/ADR-RES > 100 µM | COLO 205 > 100 µM | HOP-92 > 100 µM | HT-29 > 100 µM
